{"source": "patent US20240262917A1", "about": "“ANTIBODIES AGAINST ALK AND METHODS OF USE THEREOF” (Dana-Farber Cancer Institute, Inc., priority 2021, published 2024)", "key": {"ALK ECD cleavage": {"test_system": "ALK ECD cleavage", "assay": "WB analysis of ALK ECD cleavage in cells treated with MMP inhibitors", "assay_type": "cell-based", "details": "for levels of the shed ALK ECD fragment in media from treated cells: indicated doses; for ALK ECD cleavage / shed fragment: 2 μM×12 hr.", "excerpt": "(§1) (A) WB analysis of ALK expression in lysates and CM of NGP cells treated with the broad-spectrum protease inhibitor GM6001 and the MMP-9/13 inhibitor CAS 204140-01-2, at the indicated doses, for 12 hr. Untreated (U) or DMSO-treated cells were used as controls. The 8G7 N-terminal anti-ALK antibody was used to detect the shed fragment in CM and a C-terminal anti-ALK antibody used for the cell lysates in this and subsequent panels. β-actin is used as a loading control throughout this figure. (B) WB analysis of ALK expression in NGP cells treated with the MMP-9 (CTK8G1150) and MMP-3/12/13 (MMP408) inhibitors (2 μM×12 hr.). (C) WB analysis of ALK expression in the indicated NB cell lines treated with or without CTK8G1150 (2 μM for 12 hr.). (D) WB analysis of MMP-9 and ALK expression in NGP and BE (2)-C NB cells expressing either a control shRNA (shGFP) or two different shRNAs against MMP-9. (E) Crystal violet-stained images of NGP and IMR-5 NB cells treated with CTK8G1150 ([…]) or DMSO for 16 hr. and then subjected to transwell migration assays for 48 hr. (left). Scale bar, 100 μm. Quantification of migration (right) reported as means±SD; ** p<0.01, n=4. See also, FIG. 14.\n(A) Immunoblot analyses of ALK expression in NGP cells after shRNA depletion of ADAM17 or ADAM10. Five separate shRNAs for ADAM17 and two shRNAs for ADAM10 were used. GADPH or β-actin were included as internal loading controls in this and subsequent panels. (B) Schematic illustration of the protease predicted to cleave ALK at the identified ECD cleavage site (Asn654-Leu655) generated using PROSPER and CleavPredict software. FIG. 14B discloses SEQ ID NO: 73. (C) WB analysis of ALK expression in the indicated lysates or conditioned media from cells engineered to express WT ALK and treated with or without the MMP-9 inhibitor, CTK8G1150 (2 μM for 12 hr.). Untreated cells or cells treated with DMSO were used as controls. The 8G7 N-terminal anti-ALK antibody was used to detect the shed fragment in conditioned medium (CM) and a C-terminal anti-ALK antibody was used for the cell lysates in this and subsequent panels. (D) WB analysis of ALK expression in NGP cells treated with the indicated concentrations of CTK8G1150 for 12 hr. (E) WB analysis of ALK expression in NGP cells treated with CTK8G1150 (2 μM) for the indicated time periods. (F) WB analysis of ALK following incubation of recombinant MMP-9 to ALK protein purified from 293T cells engineered to express WT or ALK LF655del.\nMost receptor tyrosine kinases (RTKs) undergo ECD cleavage by proteases known as sheddases, that include matrix metalloproteinases (MMPs) and A disintegrin and metalloproteinases (ADAMs) (Kreitman et al., 2018). These zinc-dependent, membrane-associated or secreted proteases cleave cell surface transmembrane proteins that play a primary role in the degradation of extracellular matrix proteins, thus affecting multiple biological functions, such as cell signaling, growth factor activation and cytokine release. […] We next determined whether ALK could be cleaved by MMP-9 in vitro (FIG. 14, panel F). […] Finally, to confirm the role of MMP-9 in ALK cleavage, we genetically depleted this protease through shRNA knockdown in two NB cell lines [NGP and BE(2)-C], observing a significant decrease in the 140 kDa product resulting from inhibition of cleavage (FIG. 7, panel D). Depletion of MMP-2, by contrast, led to only a slight decrease in cleavage.\nCell lysates were prepared in NP-40 buffer (Invitrogen) containing complete protease inhibitor (Roche), phosphatase inhibitor (Roche) and phenylmethylsulfonyl fluoride (PMSF). Lysates were incubated on ice for 20 min and centrifuged at 16,000 g for 15 min at 4° C. Protein concentrations of the supernatants were determined with the DC protein assay kit (Bio-Rad). Protein samples were denatured using NuPAGE LDS sample buffer (Invitrogen) and NuPAGE sample reducing agent (Invitrogen). […]"}, "NGP and IMR-5 NB cells": {"test_system": "NGP and IMR-5 NB cells", "assay": "Transwell migration assay after MMP-9 inhibitor treatment", "assay_type": "cell-based, human", "details": "CTK8G1150 (2 µM) 16 hr., transwell migration 48 hr.", "excerpt": "as §1\nCell migration was measured using transwell chambers (Falcon; cell culture inserts with 8 μm pores) and a 24-well plate as the lower chamber. […]"}, "ALK-positive NSCLC": {"test_system": "ALK-positive NSCLC", "details": "cited from earlier work"}, "neuroblastoma": {"test_system": "neuroblastoma", "details": "human, in vivo; cited from earlier work"}}, "data": [{"smiles": "COc1ccc(S(=O)(=O)N2CCN(C(=O)c3ccc(-c4ccccc4)cc3)CC2C(=O)NO)cc1", "note": "(centres unmarked) [CAS 204140-01-2]", "values": [{"measurement": "levels of the shed ALK ECD fragment in media from treated cells", "setting": "ALK ECD cleavage; NGP cells, 12 hr.", "value": "caused a decrease in the levels of the shed ALK ECD fragment"}]}, {"smiles": "CCN(CC)Cc1cc(C)c(N(Cc2ccccc2)S(=O)(=O)c2ccc(OC)cc2)c(C(=O)NO)c1", "note": "[CTK8G1150]", "values": [{"measurement": "inhibition of ECD cleavage in cells engineered to overexpress WT ALK", "setting": "ALK ECD cleavage; 293T and NIH3T3 cells, 2 μM for 12 hr.", "value": "significant inhibition of ECD cleavage"}, {"measurement": "ECD cleavage in endogenous WT ALK-expressing NB cell lines", "setting": "ALK ECD cleavage; NGP NB cells and four additional NB cell lines, 2 μM for 12 hr.", "value": "inhibited ECD cleavage"}, {"measurement": "period over which ALK ECD cleavage disruption was maintained", "setting": "ALK ECD cleavage; NGP cells, 2 μM", "value": "> 52", "unit": "h"}, {"measurement": "ALK ECD cleavage / shed fragment", "setting": "ALK ECD cleavage; NGP cells", "value": "produced a marked decrease in the shed fragment"}, {"measurement": "dose dependence of ALK ECD cleavage disruption", "setting": "ALK ECD cleavage; NGP cells, indicated concentrations, 12 hr.", "value": "disrupted in a dose-dependent manner"}, {"measurement": "migration of NB cells that endogenously expressed WT ALK", "setting": "NGP and IMR-5 NB cells", "value": "significantly suppressed the migration"}]}, {"smiles": "CNC(=O)[C@H](Cc1c[nH]c2ccccc12)NC(=O)[C@@H](CC(=O)NO)CC(C)C", "note": "[GM6001]", "values": [{"measurement": "levels of the shed ALK ECD fragment in media from treated cells", "setting": "ALK ECD cleavage; NGP cells, 12 hr.", "value": "caused a decrease in the levels of the shed ALK ECD fragment"}]}, {"smiles": "COC(=O)Nc1ccc2oc3cc(S(=O)(=O)N[C@@H](C(=O)O)C(C)C)ccc3c2c1", "note": "[MMP408]", "values": [{"measurement": "ALK ECD cleavage / shed fragment", "setting": "ALK ECD cleavage; NGP cells", "value": "did not affect cleavage"}]}, {"smiles": "Cc1cc(Nc2ncc(Cl)c(Nc3ccccc3S(=O)(=O)C(C)C)n2)c(OC(C)C)cc1C1CCNCC1", "note": "[ceritinib]", "values": [{"measurement": "median duration of response", "setting": "ALK-positive NSCLC", "value": 16.6, "unit": "months"}]}, {"smiles": "C[C@@H](Oc1cc(-c2cnn(C3CCNCC3)c2)cnc1N)c1c(Cl)ccc(F)c1Cl", "note": "[crizotinib]", "values": [{"measurement": "durability of responses in neuroblastoma patients", "setting": "neuroblastoma", "value": "has not shown durable responses"}]}]}
